Source: PubChem BioAssay AID1996
≈ marks a conversion by molar mass, not a printed value.

conditions: buffer; pH 7.4; 200.0 µM

Compound	solubility kinetic [µg/mL]
CCC(C)N1CCN(S(=O)(=O)c2ccc(NC(C)=O)cc2)CC1 (stereo not given)	46.7 (≈ 138 µM)
Cc1c(Cc2ccccc2)sc(NC(=O)C(C)(C)C)c1C(N)=O	17.7 (≈ 53.6 µM)
Cc1nc(SCc2ccc(O)c([N+](=O)[O-])c2)c([N+](=O)[O-])[nH]1	> 46.5
Cc1cc(C)c2ccc(Cl)cc2n1	1.5 (≈ 7.83 µM)
CCCCN1C(=O)c2ccc(C(=O)OCC(=O)NCCc3ccc(S(N)(=O)=O)cc3)cc2C1=O	42.1 (≈ 86.4 µM)
CCCCC(=O)Nc1ccc(NCc2ccc(C)s2)cc1	16 (≈ 52.9 µM)
CCOC(=O)N1CCN(CCc2ccccc2)CC1	30.6 (≈ 117 µM)
O=C(Nc1nnc2n1CCS2)c1ccco1	> 35.4
COc1ccc(Cl)cc1/C=C1/C(=O)ON=C1C	29 (≈ 115 µM)
CC[C@H](C)[C@H](NC(N)=O)C(=O)NCCc1ccc(Cl)cc1	> 46.8
O=C1C2C3C=CC(CC3)C2C(=O)N1c1ccc(Cl)cc1 (stereo not given)	< 0.6
NC(N)=S	> 11.4
Cc1cc(C)c2c(c1)N[C@H](c1cccs1)[C@@H]1CCO[C@H]21	1.7 (≈ 5.96 µM)
Cl.O=C(O)C1CCN(Cc2cccnc2)CC1	> 38.5
C=CCc1cc(Cl)ccc1OCCn1ccnc1.O=C(O)C(=O)O	39.5
CN1CCCN(S(=O)(=O)c2ccc3ccccc3c2)CC1	> 45.7
Cn1c(NC(=O)c2ccc(F)cc2)nc2ccccc21	4.8 (≈ 17.8 µM)
Cc1cccc(N2N=C(C(=O)O)CCC2=O)c1	> 34.8
S=c1[nH]nc(-c2ccco2)n1-c1ccc(Cl)cc1	> 41.7
COc1ccc(N2CC(C(=O)Nc3cc(C)ccn3)CC2=O)cc1 (stereo not given)	> 48.8
COc1ccc(Nc2nc(NCc3ccco3)nc(N)c2[N+](=O)[O-])cc1	0.2 (≈ 0.561 µM)
Cc1cc(C)nc(N(C#N)Cc2cccc(Cl)c2)n1	23.6 (≈ 86.5 µM)
COc1cc(CN(C)Cc2cccc3ccccc23)cc([N+](=O)[O-])c1O	33.8 (≈ 95.9 µM)
CCN(CC)C(=S)Nc1ccc(OC(F)F)cc1	40.3 (≈ 147 µM)

Compound	solubility kinetic [µg/mL]
CCCCCOC(=O)NC1CCS(=O)(=O)C1 (stereo not given)	> 37.4
COc1cc([N+](=O)[O-])ccc1NC(=O)NCc1ccco1	13.8 (≈ 47.4 µM)
Cc1ccc(C2(c3noc(CN(C)CCO)n3)CCCC2)cc1	39.5 (≈ 125 µM)
O=C(CN1C(=O)c2ccccc2S1(=O)=O)Nc1ncc(Cl)cc1Cl	> 57.9
CC(C)(C)c1ccc(S(=O)(=O)NCC2CCCO2)cc1 (stereo not given)	34.9 (≈ 117 µM)
Cc1onc(-c2c(Cl)cccc2Cl)c1C(O)c1ccccc1 (stereo not given)	> 50.1
CCOC(=O)N1CCN(C(=O)c2ccc3ccccc3c2)CC1	> 46.9
COc1ccc(-c2nc(-c3ccncc3)no2)c(OC)c1	6 (≈ 21.2 µM)
COC(=O)C(N)Cc1ccc(OC)c([N+](=O)[O-])c1.Cl (stereo not given)	> 43.6
CC(=O)Nc1ccc(CNC(=O)C[N+]2(C)CCOCC2)cc1.[Cl-]	46.2
CN(C)c1ccc(C(=O)N2CCN(C(=O)C3CCCO3)CC2)cc1 (stereo not given)	> 49.7
Cc1cc(OCCCCCn2ccnc2)cc(C)c1Cl.Cl	23.1
O=C(COc1ccccc1)NCC(=O)Nc1ccncc1	> 42.8
Cc1ccc(CNC(=O)C(CC(C)C)OC(=O)c2ccco2)cc1 (stereo not given)	11.2 (≈ 34 µM)
COc1ccc(-c2cc(=O)[nH]c3ccccc23)cc1	4.6 (≈ 18.3 µM)
O=C(NC1CCS(=O)(=O)C1)c1cccnc1 (stereo not given)	26.1 (≈ 109 µM)
Cc1nsc(N)c1C(=O)O	> 23.7
O=C(Cc1ccccc1)Nc1c(Cl)ccc2nsnc12	4.9 (≈ 16.1 µM)
CCOC(=O)C1=C(C)N(C)C(=S)NC1c1c(OCC)ccc2ccccc12 (stereo not given)	< 0.4
CSc1ccc(CN(C)C(=O)c2cc3ccccc3o2)cc1	10.3 (≈ 33.1 µM)
CCCOc1ccc(N2CC(C(=O)NC3=NCCS3)CC2=O)cc1 (stereo not given)	43.8 (≈ 126 µM)
NC(=Nc1ccc(Cl)cc1)c1ccccc1	> 34.6
O=C(Nc1ccccc1O)c1ccc2c(c1)C(=O)N(c1ccccc1)C2=O	< 0.4
O=C(CCc1ccc(O)c(O)c1)N/N=C/c1ccc2c(c1)OCO2	> 49.2

Compound	solubility kinetic [µg/mL]
Cl.Nc1nc(N)c2[nH]c(-c3ccccc3)nc2n1	> 39.4
O=C(NCCc1ccccc1)c1cc([N+](=O)[O-])ccc1N1CCOCC1	53.2 (≈ 150 µM)
CC(=O)Nc1ccccc1OCc1cnc(Cl)s1	> 42.4
Cc1cccc(NC(=O)CN(c2ccc(F)cc2)S(C)(=O)=O)c1	42.4 (≈ 126 µM)
CC(=O)c1ccc(NC(=S)NC(=O)/C=C/c2ccco2)cc1	1.4 (≈ 4.45 µM)
CC1(C)CC2CC(C)(CN2C(=O)COC(=O)c2cccnc2Cl)C1 (stereo not given)	> 52.6
O=C(Nc1ccccc1)OCCOc1ccc(Br)cc1	< 0.7
COc1ccc(CCNC(=O)COC(=O)c2ccccn2)cc1	> 47.2
Cc1nc(N)c(Cc2ccccc2F)c(N)n1	> 34.8
CC(=O)c1ccc2noc(-c3ccc(C)cc3)c2c1	26.2 (≈ 104 µM)
O=C(O)CN1c2cccc3cccc(c23)S1(=O)=O	38.2 (≈ 145 µM)
N#Cc1c(-c2ccccc2)nc(N2CCN(Cc3ccccc3)CC2)[nH]c1=O	> 55.7
Oc1ccc(/C=C/c2ccc3cccc(O)c3n2)cc1Br	1.1 (≈ 3.21 µM)
COc1ccc(-c2csc3ncnc(NCCCO)c23)cc1	42.2 (≈ 134 µM)
COc1ccc(OCC(O)CN2C(=O)c3ccccc3C2=O)cc1 (stereo not given)	> 49.1
COc1cccc2cc(C(=O)NCCc3ccccc3)c(=O)oc12	< 0.7
O=C1NC(=O)N(Cc2ccc(F)cc2)C(=O)/C1=C\C=C\c1ccco1	10 (≈ 29.4 µM)
CN1C(N)=NC(=O)/C1=C/c1ccc(F)cc1	> 32.9
CCOc1ccc(NC(=O)c2ccc(CN3CCc4ccccc4C3)cc2)cc1	< 0.4
Cc1c(-c2ccccc2)nc(N)c(C#N)c1-c1cccnc1	5 (≈ 17.5 µM)
CC1CN(C(=S)NC(=O)c2ccccc2)CC(C)O1 (stereo not given)	> 41.8
CCC(=O)N(CCC1(C(C)C)CCOC(C)(C)C1)C(C)c1cccs1 (stereo not given)	42.2 (≈ 115 µM)
O=C(Nc1ccc(Cl)c(S(=O)(=O)N2CCOCC2)c1)c1cc2ccccc2oc1=O	2.4 (≈ 5.35 µM)
O=C(NC(=S)Nc1ccc(Br)cn1)c1cccnc1	3 (≈ 8.9 µM)

Compound	solubility kinetic [µg/mL]
CCC(=O)Nc1cc2[nH]c(=O)cc(C)c2cc1C	33.4 (≈ 137 µM)
O=S(=O)(c1ccccc1F)N1CCc2ccccc2C1	< 0.6
O=S(=O)(/N=C(/Nc1cccnc1)c1ccccc1)c1ccc(F)cc1F	> 56
COc1ccc(OC)c([N+](=O)[O-])c1C(N)=O	> 33.9
Nc1cc(=O)[nH]c(SCc2ccccc2Cl)n1	6.9 (≈ 25.8 µM)
O=C(CNC(=O)c1cccc(F)c1)N/N=C/c1cccs1	> 45.8
N/C(=N\O)c1ccccc1-n1cccc1	> 30.2
S=C1SCN(CC2CC2)CN1CC1CC1	> 36.4
CC(=O)NC(CC(=O)N1CCN(C(C)=O)CC1)c1ccccc1 (stereo not given)	> 47.6
COc1ccc(NC(=S)NCc2ccc3c(c2)OCO3)cc1	> 47.5
CC(=O)Nc1ccc(NC(=O)Nc2cccc3ccccc23)cc1	1.1 (≈ 3.44 µM)
Clc1ccccc1OCCCOc1cccc2cccnc12	3.9 (≈ 12.4 µM)
CC(C)CC1NC(=O)N(CC(=O)Nc2cc([N+](=O)[O-])ccc2F)C1=O (stereo not given)	> 52.8
COc1cc(NC(=O)c2ccccc2Cl)c2ncccc2c1	< 0.3
O=C(c1ccc(Cl)cc1)N(c1ccccn1)C1CCCCC1	41.5 (≈ 132 µM)
Cc1ccccc1CC(=O)N1CCN(S(=O)(=O)c2ccc(Cl)s2)CC1	5.6 (≈ 14 µM)
CC(=O)CN1C(=O)NC(c2ccccc2)(c2ccccc2)C1=O	33.9 (≈ 110 µM)
CN1C(=O)NC(=O)/C(=C/c2ccc(C(=O)O)cc2)C1=O	> 41.1
COc1ccc(C(CC(=O)N2CCCCC2)C(C)C)cc1 (stereo not given)	> 43.4
COc1ccc(-n2c(SCC(=O)N(C)C3CCS(=O)(=O)C3)nc3ccc(O)cc3c2=O)cc1OC (stereo not given)	35.3 (≈ 67.9 µM)
O=C(NCC(=O)N1CCCC1)c1ccc(Cl)cc1	> 40
CC1CCCC(NC(=O)COC(=O)Cc2ccc(Cl)cc2)C1C (stereo not given)	27.3 (≈ 80.8 µM)
COc1cc(/C(C)=N/NC(=O)CSc2nnc(C)s2)ccc1O	> 52.9
O=C(NC(=S)Nc1ccc(O)cc1)c1ccccc1Cl	20.5 (≈ 66.8 µM)

Compound	solubility kinetic [µg/mL]
CCCC(=O)Nc1cc(C(F)(F)F)ccc1N1CCOCC1	44.6 (≈ 141 µM)
O=C1OC(CCl)CN1Cc1ccc([N+](=O)[O-])cc1 (stereo not given)	> 40.6
CCc1sc(C(=O)N2CCN(c3ccc(F)cc3)CC2)cc1C	10.7 (≈ 32.2 µM)
Cc1ccc([N+](=O)[O-])c(NC2OC(CO)C(O)C2O)c1 (stereo not given)	> 42.6
Cl.NC(=NCCc1ccccc1)NC(=O)c1cc(Cl)ccc1O	10.6
CN(C)Cc1c(O)ccc2c1O/C(=C\C=C\c1ccccc1)C2=O	46.8 (≈ 146 µM)
Cc1ccc(N2C(=O)N(C(C)C)C(C)(C)CC2(C)O)cc1 (stereo not given)	> 43.6
COc1cccc(/C=C/C(=O)NCC2CCCCC2)c1	16.4 (≈ 60 µM)
CN(C(=O)c1ccc(Br)cc1)C1CCS(=O)(=O)C1 (stereo not given)	> 49.8
S=C(NCCc1ccccc1)Nc1cnc2ccccc2c1	3.6 (≈ 11.7 µM)
COCCCNS(=O)(=O)c1ccc2[nH]c(=O)[nH]c2c1	> 42.8
COc1ccc(NC(=O)C(CC(=O)O)Cc2ccc(Cl)cc2)cc1 (stereo not given)	> 52.2
OCCN1CCN(C(c2cccs2)c2ccc3cccnc3c2O)CC1 (stereo not given)	44 (≈ 119 µM)
N/C(=N\OC(=O)COc1ccccc1)c1ccncc1	> 40.7
COc1ccc(CN2CCOCCOCCOCCOCC2)cc1	> 50.9
COc1cc(C=O)ccc1OCC(=O)N1CCCC1	> 39.5
O=C(Nc1cc(Cl)ncn1)c1ccccc1	34.2 (≈ 146 µM)
Cc1nc2ccccn2c1C(=O)NNC(=O)Nc1ccccc1	> 46.4
COc1ccccc1Nc1nc(NCCC(C)C)nc(N)c1[N+](=O)[O-]	< 0.1
O=C1c2ccccc2NC(c2ccccc2)N1CCCN1CCOCC1 (stereo not given)	> 52.7
COc1ccc(NC(=O)C2CCOC(C)(C)C2)cc1 (stereo not given)	> 39.5
CCN(CC(=O)Nc1ccccc1OC)C(=O)CC1CC2CCC1C2 (stereo not given)	> 51.7
O=C(OCc1cccc([N+](=O)[O-])c1)c1cc(=O)[nH]c2ccccc12	< 0.3
COc1ccc(C(=O)COC(=O)c2c(C)noc2C)cc1Cl	2.9 (≈ 8.96 µM)
